According to ChEMBL document CHEMBL5230081, “Battle against Vancomycin-Resistant Bacteria: Recent Developments in Chemical Strategies” (J Med Chem, 2019):
In brackets after ≈: the same amount, converted by molar mass.

Legend:
[1] = test system: Pseudomonas aeruginosa; experiment: Antibacterial activity against multi drug resistant Pseudomonas aeruginosa assessed as reduction in microbial growth after 16 to 18 hrs by microbroth dilution method; assay type: functional; details: time 16-18 hrs
[2] = Binding affinity to D-Ala-D-Lac assessed as dissociation constant
[3] = test system: Enterococcus faecium; experiment: Antimicrobial activity against Vancomycin-resistant (Van A) Enterococcus faecium ATCC 51559 assessed as reduction in microbial growth; assay type: functional
[4] = test system: Staphylococcus aureus; experiment: Antimicrobial activity against Vancomycin-resistant Staphylococcus aureus incubated for 20 hrs by broth dilution method; assay type: functional
[5] = Binding affinity to D-Ala-D-Ala assessed as dissociation constant
[6] = test system: Staphylococcus aureus; experiment: Antibacterial activity against Vancomycin-intermediate Staphylococcus aureus NRS1 assessed as bacterial growth inhibition; assay type: functional
[7] = test system: Enterococcus faecium; experiment: Antibacterial activity against Vancomycin-resistant Enterococcus faecium assessed as colony forming unit at 20 times MIC concentration measured after 21 days by time kill assay; assay type: functional; details: time 21 day
[8] = test system: Pseudomonas aeruginosa; experiment: Antibacterial activity against Pseudomonas aeruginosa R590 assessed as reduction in bacterial growth in presence of vancomycin by broth microdilution method; assay type: functional
[9] = test system: Acinetobacter baumannii; experiment: Antibacterial activity against Acinetobacter baumannii R4942 assessed as reduction in bacterial growth by broth microdilution method; assay type: functional
[10] = test system: Pseudomonas aeruginosa; experiment: Antibacterial activity against Pseudomonas aeruginosa R590 assessed as reduction in bacterial growth by broth microdilution method; assay type: functional
[11] = test system: Acinetobacter baumannii; experiment: Antibacterial activity against Acinetobacter baumannii R4942 assessed as reduction in bacterial growth in presence of telavancin by broth microdilution method; assay type: functional
[12] = test system: Enterococcus faecium; experiment: Antimicrobial activity against Vancomycin-resistant Enterococcus faecium ATCC 51559 assessed as inhibition in microbial growth measured after 48 hrs by microbroth dilution method; assay type: functional
[13] = test system: Escherichia coli; experiment: Antibacterial activity against Escherichia coli ATCC 25922 assessed as bacterial growth inhibition measured after 48 hrs in presence of vancomycin; assay type: functional
[14] = test system: Escherichia coli; experiment: Antibacterial activity against Escherichia coli assessed as bacterial growth inhibition measured after 48 hrs in presence of vancomycin; assay type: functional
[15] = test system: Enterobacter cloacae; experiment: Antibacterial activity against Enterobacter cloacae NDM-1 assessed as reduction in bacterial growth by broth microdilution method; assay type: functional
[16] = test system: Acinetobacter baumannii; experiment: Antimicrobial activity against Acinetobacter baumannii ATCC 17978 assessed as microbial growth inhibition; assay type: functional
[17] = test system: Klebsiella pneumoniae; experiment: Antibacterial activity against Klebsiella pneumoniae R3949 assessed as reduction in bacterial growth in presence of Meropenem by broth microdilution method; assay type: functional
[18] = test system: Escherichia coli; experiment: Antimicrobial activity against Escherichia coli ATCC 8739 assessed as microbial growth inhibition in presence of Vancomycin by agar dilution method; assay type: functional
[19] = test system: Acinetobacter baumannii; experiment: Antimicrobial activity against Acinetobacter baumannii assessed as microbial growth inhibition; assay type: functional
[20] = test system: Acinetobacter baumannii; experiment: Antibacterial activity against Acinetobacter baumannii R4942 assessed as reduction in bacterial growth in presence of teicoplanin by broth microdilution method; assay type: functional
[21] = test system: Enterococcus faecalis; experiment: Antimicrobial activity against Vancomycin-sensitive Enterococcus faecalis ATCC 29212 assessed as reduction in microbial growth; assay type: functional
[22] = Binding affinity to D-Ala-D-Lac
[23] = test system: Enterococcus faecium; experiment: Antimicrobial activity against Vancomycin-resistant Enterococcus faecium assessed as reduction in microbial growth; assay type: functional; details: Enterococcus faecium; read-out: MIC
[24] = test system: Enterococcus faecium; experiment: Antimicrobial activity against Vancomycin-resistant (Van S) Enterococcus faecium ATCC 51559 assessed as reduction in microbial growth; assay type: functional
[25] = test system: Enterococcus faecalis; experiment: Antimicrobial activity against Vancomycin - resistant Enterococcus faecalis SR7914 assessed as inhibition of bacterial growth; assay type: functional
[26] = test system: Enterococcus faecium; experiment: Antibacterial activity against Enterococcus faecium SR7917 (VRE); assay type: functional
[27] = test system: Enterococcus faecium; experiment: Antibacterial activity against Vancomycin-resistant Enterococcus faecium assessed as reduction in bacterial growth measured after 48 hrs by microbroth dilution method; assay type: functional
[28] = test system: Escherichia coli; experiment: Synergistic antibacterial activity against Escherichia coli in presence of Trimethoprim; assay type: functional
[29] = test system: Escherichia coli; experiment: Synergistic antibacterial activity against multidrug-resistant Escherichia coli assessed as reduction in bacterial viability after 12 hrs in presence of 1/2 MIC of trimethoprim; assay type: functional
[30] = test system: Pseudomonas aeruginosa; experiment: Antibacterial activity against Pseudomonas aeruginosa ATCC 27853 assessed as bacterial growth inhibition measured after 24 hrs by microbroth dilution method; assay type: functional
[31] = test system: Pseudomonas aeruginosa; experiment: Synergistic antibacterial activity against multidrug-resistant Pseudomonas aeruginosa ATCC 27853 assessed as reduction in bacterial viability after 12 hrs in presence of 1/2 MIC of vancomycin; assay type: functional
[32] = test system: Enterococcus faecalis; experiment: Antibiofilm activity against Enterococcus faecalis ATCC 47077 biofilms assessed as biofilm eradication; assay type: functional
[33] = test system: Staphylococcus aureus; experiment: Antibacterial activity against Staphylococcus aureus assessed as biofilm formation; assay type: functional
[34] = test system: Escherichia coli; experiment: Synergistic antibacterial activity against Escherichia coli in presence of nitrofurantoin; assay type: functional
[35] = test system: Escherichia coli; experiment: Synergistic antibacterial activity against multidrug-resistant Escherichia coli assessed as reduction in bacterial viability after 12 hrs in presence of 1/2 MIC of nitrofurantoin; assay type: functional
[36] = test system: Enterococcus faecalis; experiment: Antimicrobial activity against Vancomycin - resistant Enterococcus faecalis assessed as inhibition of bacterial growth; assay type: functional
[37] = test system: Staphylococcus aureus; experiment: Antimicrobial activity against vancomycin-resistant Staphylococcus aureus assessed as microbial growth reduction; assay type: functional
[38] = test system: Pseudomonas aeruginosa; experiment: Antibacterial activity against colistin-resistant Pseudomonas aeruginosa PA101243 assessed as reduction in bacterial growth after 18 hrs by microbroth dilution method; assay type: functional
[39] = Enterococcus faecium, ATCC 51559, read-out: MIC

NC[C@H]1O[C@H](O[C@H]2[C@H](O)[C@@H](O[C@H]3O[C@H](CO)[C@@H](O)[C@H](N)[C@H]3O)[C@H](N)C[C@@H]2N)[C@H](N)C[C@@H]1O [TOBRAMYCIN]
MIC [1]: 0.7 µM

CN[C@H](CC(C)C)C(=O)N[C@H]1C(=O)N[C@@H](CC(N)=O)C(=O)N[C@H]2C(=O)N[C@H]3C(=O)N[C@H](C(=O)N[C@H](C(=O)NCCSSCCNC(=O)[C@H]4NC(=O)[C@H]5NC(=O)[C@H](NC(=O)[C@@H]6NC(=O)[C@H](CC(N)=O)NC(=O)[C@H](NC(=O)[C@@H](CC(C)C)NC)[C@H](O)c7ccc(c(Cl)c7)Oc7cc6cc(c7O[C@@H]6O[C@H](CO)[C@@H](O)[C@H](O)[C@H]6O[C@H]6C[C@](C)(N)[C@H](O)[C@H](C)O6)Oc6ccc(cc6Cl)[C@H]5O)c5ccc(O)c(c5)-c5c(O)cc(O)cc54)c4cc(O)cc(O)c4-c4cc3ccc4O)[C@H](O)c3ccc(c(Cl)c3)Oc3cc2cc(c3O[C@@H]2O[C@H](CO)[C@@H](O)[C@H](O)[C@H]2O[C@H]2C[C@](C)(N)[C@H](O)[C@H](C)O2)Oc2ccc(cc2Cl)[C@H]1O
Kd [2]: 440 µM | MIC [3, 39]: 11 µM | MIC [4]: 11 µM | Kd [5]: 1900 nM

CN[C@H](CC(C)C)C(=O)N[C@H]1C(=O)N[C@@H](CC(N)=O)C(=O)N[C@H]2C(=O)N[C@H]3C(=O)N[C@H](C(=O)N[C@H](C(=O)NCCCCCCN(Cc4ccccn4)Cc4ccccn4)c4cc(O)cc(O)c4-c4cc3ccc4O)[C@H](O)c3ccc(c(Cl)c3)Oc3cc2cc(c3O[C@@H]2O[C@H](CO)[C@@H](O)[C@H](O)[C@H]2O[C@H]2C[C@](C)(N)[C@H](O)[C@H](C)O2)Oc2ccc(cc2Cl)[C@H]1O
MIC [6]: 1 µM | MIC [3]: 1.5 µM | MIC [3, 39]: 2 µM | Activity [7]: 5 log10/ml

CCCCCCCCCCCCCC[N+](C)(C)CCCNC(=O)[C@H]1NC(=O)[C@H]2NC(=O)[C@H](NC(=O)[C@@H]3NC(=O)[C@H](CC(N)=O)NC(=O)[C@H](NC(=O)[C@@H](CC(C)C)NC)[C@H](O)c4ccc(c(Cl)c4)Oc4cc3cc(c4O[C@@H]3O[C@H](CO)[C@@H](O)[C@H](O)[C@H]3O[C@H]3C[C@](C)(N)[C@H](O)[C@H](C)O3)Oc3ccc(cc3Cl)[C@H]2O)c2ccc(O)c(c2)-c2c(O)cc(O)cc21
MIC [8]: 0.5 µg/mL | MIC [9]: 3 µM | MIC [10]: 6.1 µM | MIC [11]: < 1 µg/mL | MIC [12]: 1.2 µM | MIC [13]: 12.5 µg/mL | MIC [14]: 6.25 µg/mL | MIC [15]: 12.5 µM | MIC [16]: ≤ 2 µg/mL | MIC [17]: 3.15 µg/mL | MIC [18]: 6 µg/mL | MIC [19]: 3 µM | MIC [20]: ≤ 2 µg/mL

CCCCCCCC[n+]1ccc(CN[C@@]2(C)C[C@H](O[C@H]3[C@H](Oc4c5cc6cc4Oc4ccc(cc4Cl)[C@@H](O)[C@@H](NC(=O)[C@@H](CC(C)C)NC)C(=O)N[C@@H](CC(N)=O)C(=O)N[C@H]6C(=O)N[C@H]4C(=O)N[C@H](C(=O)N[C@H](C(=O)NC(=O)[C@H](O)[C@@H](O)[C@H](O[C@@H]6O[C@H](CO)[C@@H](O)[C@H](O)[C@H]6O)[C@H](O)CO)c6cc(O)cc(O)c6-c6cc4ccc6O)[C@H](O)c4ccc(c(Cl)c4)O5)O[C@H](CO)[C@@H](O)[C@@H]3O)O[C@@H](C)[C@H]2O)cc1
MIC [6]: 0.1 µM | MIC [3, 39]: 0.09 µM | MIC [21]: 0.1 µM | Ka [22]: 5.7 10^4/M | MIC [23]: 0.09 µM

CCCCCCCCCC(=O)O[C@@H]1c2ccc(c(Cl)c2)Oc2cc3cc(c2O[C@@H]2O[C@H](CO)[C@@H](O)[C@H](O)[C@H]2O[C@H]2C[C@](C)(N)[C@H](O)[C@H](C)O2)Oc2ccc(cc2Cl)[C@@H](O)[C@@H](NC(=O)[C@@H](CC(C)C)NC)C(=O)N[C@@H](CC(N)=O)C(=O)N[C@H]3C(=O)N[C@H]2C(=O)N[C@@H]1C(=O)N[C@H](C(=O)O)c1ccccc1-c1cccc2c1
MIC [24]: 0.25 µg/mL

CCCCCCCCCCCCCCCCC[C@H]1CN(C)[C@@H]([C@H](O[C@@H]2O[C@H](CN)[C@@H](O)[C@H]2O)[C@H]2O[C@@H](n3ccc(=O)[nH]c3=O)[C@H](O)[C@@H]2O)C(=O)N(C)[C@@H]1C(=O)O
MIC [25]: 8 µg/mL (≈ 10 µM) | MIC [26]: 8 µg/mL (≈ 10 µM)

H-ILRWPWWPWRRK-NH2 [OMIGANAN]
MIC [27]: 2 µg/mL

CN[C@H](CC(C)C)C(=O)N[C@H]1C(=O)N[C@@H](CC(N)=O)C(=O)N[C@H]2C(=O)N[C@H]3C(=O)N[C@H](C(=O)N[C@H](C(=O)O)c4cc(O)cc(O)c4-c4cc3ccc4O)[C@H](O)c3ccc(c(Cl)c3)Oc3cc2cc(c3O[C@@H]2O[C@H](CO)[C@@H](O)[C@H](O)[C@H]2O[C@H]2C[C@](C)(N)[C@H](O)[C@H](C)O2)Oc2ccc(cc2Cl)[C@H]1O [VANCOMYCIN]
MIC [28]: 0.2 µg/mL | MIC [29]: 3.5 µg/mL | MIC [30]: 0.5 µg/mL (≈ 0.345 µM) | fractional inhibitory concentration index (FICI) [31]: <0.5 | MBEC [32]: >512 µg/mL | MBEC [33]: >512 µg/mL | MIC [34]: 6.25 µg/mL | MIC [35]: 12.5 µg/mL | MIC [36]: 31 µg/mL (≈ 21.4 µM)

CCCCCCCCCCC(=O)N[C@@H](CCCCN)C(=O)N[C@@H](CCCCN)C(=O)NC(CCCCNC(=O)[C@H]1NC(=O)[C@H]2NC(=O)[C@H](NC(=O)[C@@H]3NC(=O)[C@H](CC(N)=O)NC(=O)[C@H](NC(=O)[C@@H](CC(C)C)NC)[C@H](O)c4ccc(c(Cl)c4)Oc4cc3cc(c4O[C@@H]3O[C@H](CO)[C@@H](O)[C@H](O)[C@H]3O[C@H]3C[C@](C)(N)[C@H](O)[C@H](C)O3)Oc3ccc(cc3Cl)[C@H]2O)c2ccc(O)c(c2)-c2c(O)cc(O)cc21)C(=O)O (stereo not given in full)
MIC [6]: 0.5 µg/mL | MIC [3, 39]: 6 µg/mL | MIC [4]: 1 µg/mL | MIC [37]: 0.05 µg/mL (≈ 0.025 µM)

C[C@@H](O)[C@H]1C(=O)N2C(C(=O)O)=C(S[C@@H]3CN[C@H](C(=O)N(C)C)C3)[C@H](C)[C@H]12 [MEROPENEM]
MIC [38]: < 1 µg/mL
